Experiment [1] deals with LTB4-induced dermal inflammation. The experiment is described as follows: Rabbit model of LTB4-induced dermal inflammation, histopathology of intradermal challenge sites. The format is in vivo, New Zealand White Rabbits. On the set-up: key to Inflammation score / Edema score: 0=normal; T=trace; 1=minimal; 2=mild; 3=moderate; 4=marked. To be noted: test article IP 60 mg/kg (dexamethasone 0.5 mg/kg), 4 hr after challenge. How it is done: Test compounds were prepared as follows. The vehicle was first prepared by dissolving […] of hydroxypropylmethylcellulose 2910 (HPMC)(Sigma Chemical, St. Louis, Mo.) in 50 mL of 0.9% saline to yield a concentration of 2% HPMC. The three test articles, (R)-, (S)- and racemic tofisopam, were formulated by adding 1 g of each test article to 10 mL of vehicle.
On Day 0, the rabbits were sedated with ketamine/xylazine (35/5 mg/kg, s.c.) and an area of approximately 8×14 cm on the back was closely and carefully clipped to expose the skin, but not inflame or otherwise damage the epithelium. A grid of ten squares each approximately 2.5×2.5 cm was drawn on each animal's back using an indelible marker. The animals were then dosed intraperitoneally with the appropriate test article corresponding to the group. Thirty minutes after dosing with test or control article, the animals were challenged intradermally with the LTB4 or LTB4-aminopropamide (LTB4-AP, a synthetic LTB4 agonist) in the appropriate site as shown in Table 4. Each injection site was marked with an indelible marker in order to identify the exact location of the intradermal injection site. Sixty minutes after challenge, the animals were treated again with tofisopam or control articles. The animals were sacrificed 4 hrs. after challenge, and the intradermal injection sites were excised, fixed in 10% neutral buffered formalin (NBF), and submitted for histopathology. H&E-stained sections were read by a board-certified veterinary pathologist using light microscopy.
All animals were sacrificed 4 hr after challenge. The intradermal challenge sites were excised, placed on unique cardboard squares, fixed in 10% NBF, and submitted for histopathology. The skin sections included the epidermis and the subcutis, down to the back musculature.
The marked skin sections were fixed for at least 48 hours on small cardboard squares. At gross trimming, three levels were cut through marked skin region in order to assure that the injection sites is brought into the plane of section. The skins were gross trimmed, processed by dehydration, embedded in paraffin, sectioned at 3-5 μm, and stained with hematoxylin and eosin.
The tissues were evaluated histopathologically via light microscopy by a board-certified veterinary pathologist. Initially, the identity of the slides was masked in order to perform the initial evaluation and rank the slides. The slides were then unmasked and there was a careful assessment of the lesions and careful comparison of the tofisopam-treated sites to the vehicle and positive control tissues. The lesions were graded based upon the degree of inflammation and the degree of edema. The severity of the inflammation and edema was keyed as follows: 0=normal; T=trace; 1=minimal; 2=mild; 3=moderate; 4=marked.

For a further experiment, the target named is LTB4 receptor (Cavia porcellus, UniProt H0VYV8). The experiment is described as follows: LTB4 binding assay, displacement of [3H]LTB4, guinea pig spleen membrane. A general note: In a radioligand displacement assay an active substance lowers the binding of a labelled ligand.
Chain of LTB4 receptor (H0VYV8 1-348): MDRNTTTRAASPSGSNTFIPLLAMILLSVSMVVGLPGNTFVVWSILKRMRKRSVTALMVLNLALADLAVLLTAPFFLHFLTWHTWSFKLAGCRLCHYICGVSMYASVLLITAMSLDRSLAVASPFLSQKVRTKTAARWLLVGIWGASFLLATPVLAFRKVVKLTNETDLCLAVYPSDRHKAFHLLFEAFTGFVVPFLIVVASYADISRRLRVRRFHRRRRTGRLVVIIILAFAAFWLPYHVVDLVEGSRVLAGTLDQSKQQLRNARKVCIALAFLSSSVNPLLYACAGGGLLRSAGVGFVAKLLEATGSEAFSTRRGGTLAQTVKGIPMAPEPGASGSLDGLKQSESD

“And” between values parts separate entries of the source, which are not always exact repeats. Equal values may be shown once.

Procedure for LTB4 receptor: Reactions were carried out in a phosphate buffer (pH 7.4) containing NaCl, MgCl2, EDTA, and bacitracin. The reaction volume of 150 μL containing 1.0 mg/mL of the Guinea pig spleen membrane preparation and 1 nM [^3H]LTB4, with or without a competitor, was incubated at 0-4° C. for 2 hours. Competitors included 2,3-benzodiazepines, and LTB4 as a control. The reaction was terminated by rapid vacuum filtration onto glass fiber filters. The filter was washed with cold buffer, dried and placed in a scintillation vial. Radioactivity trapped onto the filters was determined and compared to control values in order to ascertain any interactions of the test compound with the LTB4 binding site.

For `C[C@@H]1C[C@H]2[C@@H]3CCC4=CC(=O)C=C[C@]4(C)[C@@]3(F)[C@@H](O)C[C@]2(C)[C@@]1(O)C(=O)CO` [dexamethasone], the Edema score in experiment [1] (injection site: LTB4 500 ng) is 2 and 3; in experiment [1] (injection site: LTB4 1000 ng), 2 and 3; in experiment [1] (injection site: LTB4 2000 ng) it was 3 and 2 and 1; in experiment [1] (injection site: LTB-ap 500 ng) it was 2 and 3; in experiment [1] (injection site: LTB-ap 1000 ng) it was 3; in experiment [1] (injection site: LTB-ap 2000 ng), 3 and 1 and 2. Further, the Edema score in experiment [1] (injection site: Vehicle 0 ng) was 1 and 0. The Inflammation score in experiment [1] (injection site: LTB4 500 ng) is 2 and 3; in experiment [1] (injection site: LTB4 1000 ng), 3; in experiment [1] (injection site: LTB-ap 500 ng), 3 and 2; in experiment [1] (injection site: LTB-ap 1000 ng) it was 2; in experiment [1] (injection site: LTB-ap 2000 ng), 2 and 1; in experiment [1] (injection site: Vehicle 0 ng) it was 1 and 0.
Usually Ki stands for the dissociation constant of the complex between target and ligand, obtained from inhibition or displacement. Turning to `CCCCC/C=C\C[C@@H](O)/C=C/C=C/C=C\[C@@H](O)CCCC(=O)O` [LTB4, Leukotriene B4], the Ki on LTB4 receptor is 0.2 to 0.9 nM.

These data come from patent publication US6864251B2, “Treatment of LTB4-mediated inflammatory disorders with optically-pure (R)-2,3-benzodiazepines” (Vela Pharmaceuticals, Inc., priority 2002, dated 2005).
